Experimental data from US20240166626A1, “Compounds and Methods for Preventing, Treating, or Ameliorating Airway Disease” (THOMAS JEFFERSON UNIVERSITY, priority 2021, published 2024).

Tested on: mouse airway tissue
Assay: Measurement of airway contractility in ex vivo mouse lung tissue slices
Procedure: FIGS. 4A-4F: DFPQ inhibits internalization of the β2AR and protects from agonist induced desensitization in cell and tissue models. FIG. 4A: Effect of DFPQ on agonist-promoted internalization of the β2AR. HEK 293 cells stably expressing FLAG-β2AR were pre-incubated with 0.1% DMSO or 10 μM DFPQ for 30 min and then stimulated with the indicated concentrations of ISO for up to 60 min. Cells were fixed and receptor surface expression was measured by ELISA. […] Cells were lysed and cAMP production was measured by ELISA. […] FIG. 4C: Mouse airway tissue were contracted with 1 μM methacholine for 5 min and then incubated overnight with 1 μM ISO±1 μM DFPQ. […] Airway contractility was measured by luminal area of bronchioles by microscopy at various times. […]
Cell culture GLOSENSOR™ cells (Promega) were maintained in Dulbecco's modified Eagle's medium (DMEM) containing 10% fetal bovine serum (FBS) and 200 μg/ml Hygromycin B. […]® ADRB2 cells (DiscoveRx) were maintained with the AssayComplete™ Cell Culture kit (DiscoveRx catalog #92-3107G). […] Cells were read every three minutes for 18 minutes on a PolarStar Optima plate reader (BMG) to establish peak signal. ISO was added to each well to a final concentration of 1 μM, and luminescence was determined in kinetic mode at room temperature (23-25° C.). […] Luminescence was determined at room temperature (23-25° C.) on a PolarStar Optima plate reader (BMG). […]

## Fc1ccc(Nc2nc(NC3CCCCC3)c3ccccc3n2)cc1F [DFPQ, N^4-cyclohexyl-N^2-(3,4-difluorophenyl)quinazoline-2,4-diamine]
Overnight 1 μM ISO + 1 μM DFPQ, relative to control, FIG. 4C
  ISO mediated reversal of airway contraction on day 2: largely preserved
Up to 25 minutes post ISO challenge on day 2, FIG. 4D
  protection from desensitization: significant protection from desensitization
